According to paper PMC3265452 (PLoS Neglected Tropical Diseases, 2012):
Counter-ions that a name gives are not always drawn.

Each compound was assayed against AaDOP2 (Aedes aegypti, UniProt H6D5H2) (assay: AaDOP2 antagonist screen of the LOPAC1280 library (HEK-CRELuc-Aadop2 cells, luminescence)). Conditions: not given.
Type: cell-based

Chain of AaDOP2 (H6D5H2 1-476): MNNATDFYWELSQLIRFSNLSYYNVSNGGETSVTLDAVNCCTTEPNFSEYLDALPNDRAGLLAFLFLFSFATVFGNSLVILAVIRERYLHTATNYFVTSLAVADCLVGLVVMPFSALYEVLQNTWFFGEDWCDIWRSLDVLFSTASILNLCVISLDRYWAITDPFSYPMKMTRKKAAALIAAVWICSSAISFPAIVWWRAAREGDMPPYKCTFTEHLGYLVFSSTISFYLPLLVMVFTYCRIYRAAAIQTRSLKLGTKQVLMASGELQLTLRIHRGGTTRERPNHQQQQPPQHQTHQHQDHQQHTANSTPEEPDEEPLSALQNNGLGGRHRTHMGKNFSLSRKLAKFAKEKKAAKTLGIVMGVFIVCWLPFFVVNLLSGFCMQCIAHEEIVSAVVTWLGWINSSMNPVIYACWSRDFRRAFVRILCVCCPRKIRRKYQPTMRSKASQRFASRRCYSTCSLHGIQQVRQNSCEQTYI

| SMILES | Compound effect (percent receptor signaling in presence of test compound, relative lux units relative to the SCH23390 control) | % of the SCH23390 effect (percent inhibition of receptor response relative to the SCH23390 control) |
| --- | --- | --- |
| CN(C)CCCC1(c2ccc(F)cc2)OCc2cc(C#N)ccc21 (stereo not drawn) [Compound 298, Citalopram hydrobromide] | 90 |  |
| Clc1cccc(Cl)c1N=C1NCCN1 [Compound 299, Clonidine hydrochloride] | 100 |  |
| CO/N=C(\C(=O)N[C@@H]1C(=O)N2C(C(=O)O)=C(COC(C)=O)CS[C@H]12)c1csc(N)n1 [Compound 300, Cefotaxime sodium] | 93 |  |
| CN(C(=O)CCCOc1ccc2[nH]c(=O)ccc2c1)C1CCCCC1 [Compound 301, Cilostamide] | 88 |  |
| O=C(O)c1cc(O)cc(C(=O)O)n1 [Compound 302, Chelidamic acid] | 82 |  |
| OC[C@H]1O[C@@H](n2cnc3c(NC4CCCC4)ncnc32)[C@H](O)[C@@H]1O [Compound 303, N6-Cyclopentyladenosine] | 89 |  |
| CC1(C(=O)O)C2CCC(O2)C1(C)C(=O)O (stereo not drawn) [Compound 304, Cantharidic Acid] | 120 |  |
| CN(C)CCCN1c2ccccc2Sc2ccc(Cl)cc21 [Compound 305, Chlorpromazine hydrochloride] | 95 |  |
| O=C(/C=C/c1ccc(O)c(O)c1)OCCc1ccccc1 [Compound 307, Caffeic acid phenethyl ester] | 147 |  |
| CC(=O)OCC1=C(C(=O)O)N2C(=O)[C@@H](NC(=O)CSc3ccncc3)[C@H]2SC1 [Compound 308, Cephapirin sodium] | 116 |  |
| CC1=C(C(=O)O)N2C(=O)[C@@H](NC(=O)[C@H](N)C3=CCC=CC3)[C@H]2SC1 [Compound 309, Cephradine] | 79 |  |
| CCN(CCCl)Cc1ccccc1Br.Cl [Compound 310, DSP-4 hydrochloride] | 111 |  |
| CCn1nc(C(=O)O)c(=O)c2cc3c(cc21)OCO3 [Compound 311, Cinoxacin] | 135 |  |
| CCCC(C)(COC(N)=O)COC(=O)NC(C)C (stereo not drawn) [Compound 312, Carisoprodol] | 130 |  |
| CN(C)CCOC(=O)COc1ccc(Cl)cc1 [Compound 313, Centrophenoxine hydrochloride] | 99 |  |
| Cl.N[C@@H](CCl)C(=O)O [Compound 315, beta-Chloro-L-alanine hydrochloride] | 99 |  |
| Oc1ccccc1O [Compound 316, Pyrocatechol] | 101 |  |
| O=C(N[C@@H](Cc1ccccc1)C(=O)CCl)OCc1ccccc1 [Compound 317, Z-L-Phe chloromethyl ketone] | 124 |  |
| COc1cc2c(c(OC)c1OC)-c1ccc(OC)c(=O)cc1[C@@H](NC(C)=O)CC2 [Compound 319, Colchicine] | 131 |  |
| NC(N)=NOCC[C@H](N)C(=O)O.O=S(=O)(O)O [Compound 320, L-Canavanine sulfate] | 92 |  |
| NS(=O)(=O)c1cc2c(cc1Cl)NC(C1CC3C=CC1C3)NS2(=O)=O (stereo not drawn) [Compound 321, Cyclothiazide] | 93 |  |

| SMILES | Compound effect (percent receptor signaling in presence of test compound, relative lux units relative to the SCH23390 control) | % of the SCH23390 effect (percent inhibition of receptor response relative to the SCH23390 control) |
| --- | --- | --- |
| OC[C@H]1O[C@@H](n2cnc3c(NC4CCCCC4)ncnc32)[C@H](O)[C@@H]1O [Compound 322, N6-Cyclohexyladenosine] | 100 |  |
| CC[C@@]1(O)C(=O)OCc2c1cc1n(c2=O)Cc2cc3ccccc3nc2-1 [Compound 323, (S)-(+)-Camptothecin] | 7 | 93% |
| CCN(CC)C(C)C(=O)N1c2ccccc2Sc2ccccc21.Cl (stereo not drawn) [Compound 324, 10-(alpha-Diethylaminopropionyl)-phenothiazine hydrochloride] | 56 |  |
| CCCn1c(=O)c2[nH]c(C3CCCC3)nc2n(CCC)c1=O [Compound 327, 8-Cyclopentyl-1,3-dipropylxanthine] | 111 |  |
| Cn1c(=O)c2[nH]c(C3CCCC3)nc2n(C)c1=O [Compound 328, 8-Cyclopentyl-1,3-dimethylxanthine] | 93 |  |
| Cl.NCC(O)C1CCCCCCC1 (stereo not drawn) [Compound 331, 2-Cyclooctyl-2-hydroxyethylamine hydrochloride] | 95 |  |
| NCCc1c[nH]c2ccc(C(N)=O)cc12.O=C(O)/C=C\C(=O)O [Compound 332, 5-Carboxamidotryptamine maleate] | 119 |  |
| O=C(O)c1cc(O)c2ccc(Cl)cc2n1 [Compound 333, 7-Chlorokynurenic acid] | 79 |  |
| CCNC(=O)[C@H]1O[C@@H](n2cnc3c(N)nc(NCCc4ccc(CCC(=O)O)cc4)nc32)[C@H](O)[C@@H]1O.Cl [Compound 337, CGS-21680 hydrochloride] | 112 |  |
| OC[C@H]1O[C@@H](n2cnc3c(NC4CCCC4)nc(Cl)nc32)[C@H](O)[C@@H]1O [Compound 338, 2-Chloro-N6-cyclopentyladenosine] | 92 |  |
| Cl.N=C(N)NC(=N)Nc1cccc(Cl)c1 [Compound 339, 1-(m-Chlorophenyl)-biguanide hydrochloride] | 83 |  |
| Nc1nc(Cl)nc2c1ncn2[C@@H]1O[C@H](COP(=O)([O-])OP(=O)([O-])OP(=O)([O-])[O-])[C@@H](O)[C@H]1O.[Na+].[Na+].[Na+].[Na+] [Compound 340, 2-Chloroadenosine triphosphate tetrasodium] | 102 |  |
| Oc1cc2c(cc1O)CN(C(=S)NCCc1ccc(Cl)cc1)CCC2 [Compound 342, Capsazepine] | 69 |  |
| CN1C(=O)CCS(=O)(=O)C1c1ccc(Cl)cc1 (stereo not drawn) [Compound 343, Chlormezanone] | 93 |  |
| Cn1c(=O)c2c(nc(C=Cc3cccc(Cl)c3)n2C)n(C)c1=O [Compound 344, 8-(3-Chlorostyryl)caffeine] | 91 |  |
| Nc1nc2ccc(Cl)cc2c2nc(-c3ccco3)nn12 [Compound 345, CGS-15943] | 117 |  |
| O=C[C@H](Cl)[C@@H](O)[C@H](O)[C@H](O)CO [Compound 346, 2-Chloro-2-deoxy-D-glucose] | 114 |  |
| CN1C2CCC1CC(OC(c1ccccc1)c1ccc(Cl)cc1)C2.Cl (stereo not drawn) [Compound 347, 4'-Chloro-3-alpha-(diphenylmethoxy)tropane hydrochloride] | 15 | 85% |
| c1ccc(C2CC2)c(OCC2=NCCN2)c1 [Compound 348, Cirazoline hydrochloride] | 74 |  |
| N[C@H](C(=O)O)[C@H]1C[C@@H]1C(=O)O [Compound 350, (2S,1'S,2'S)-2-(carboxycyclopropyl)glycine] | 97 |  |

Same assay, conditions: 10 µM compound, 300 nM dopamine, 2 hr; hit = compound effect <20

| SMILES | Compound effect (percent receptor signaling in presence of test compound, relative lux units relative to the SCH23390 control) |
| --- | --- |
| NC(=O)c1cc[n+](CC2=C(C(=O)[O-])N3C(=O)[C@@H](NC(=O)[C@@H](c4ccccc4)S(=O)(=O)[O-])[C@H]3SC2)cc1.[Na+] [Compound 306, Cefsulodin sodium salt hydrate] | 108% |
| CN1CCN(c2nc3cc(C(F)(F)F)ccc3n3cccc23)CC1.O=C(O)/C=C\C(=O)O [Compound 330, CGS-12066A maleate] | 104% |
| C[C@@](Cc1ccc(O)c(O)c1)(NN)C(=O)O [Compound 335, S-(-)-Carbidopa] | 112% |
| CS(=O)(=O)O.Cn1cc(C(F)(F)F)nc1-c1ccc(OCC(O)CNCCOc2ccc(O)c(C(N)=O)c2)cc1 (stereo not drawn) [Compound 349, CGP 20712A methanesulfonate] | 92% |
| N#Cc1cc2nc([O-])c([O-])nc2cc1[N+](=O)[O-].[Na+].[Na+] [Compound 351, CNQX disodium] | 91% |
